Columns and labels:
Canis familiaris = assay: AUC in dog at […], po; assay type: ADME, organism-based, Canis lupus familiaris, Plasma; design: dose 2.5 mg/kg, route oral; conditions: in vivo
[1] = Half life in dog at […], po; assay type: ADME, organism-based, Canis lupus familiaris; design: dose 2.5 mg/kg, route oral; conditions: in vivo
[2] = Oral bioavailability in dog at […]; assay type: ADME, organism-based, Canis lupus familiaris; conditions: in vivo
Glucocorticoid receptor [3] = molecular target: T1, Glucocorticoid receptor (Homo sapiens, UniProt P04150); assay: Displacement of [3H]dexamethasone from human recombinant GR
T1 sequence (P04150 whole entry): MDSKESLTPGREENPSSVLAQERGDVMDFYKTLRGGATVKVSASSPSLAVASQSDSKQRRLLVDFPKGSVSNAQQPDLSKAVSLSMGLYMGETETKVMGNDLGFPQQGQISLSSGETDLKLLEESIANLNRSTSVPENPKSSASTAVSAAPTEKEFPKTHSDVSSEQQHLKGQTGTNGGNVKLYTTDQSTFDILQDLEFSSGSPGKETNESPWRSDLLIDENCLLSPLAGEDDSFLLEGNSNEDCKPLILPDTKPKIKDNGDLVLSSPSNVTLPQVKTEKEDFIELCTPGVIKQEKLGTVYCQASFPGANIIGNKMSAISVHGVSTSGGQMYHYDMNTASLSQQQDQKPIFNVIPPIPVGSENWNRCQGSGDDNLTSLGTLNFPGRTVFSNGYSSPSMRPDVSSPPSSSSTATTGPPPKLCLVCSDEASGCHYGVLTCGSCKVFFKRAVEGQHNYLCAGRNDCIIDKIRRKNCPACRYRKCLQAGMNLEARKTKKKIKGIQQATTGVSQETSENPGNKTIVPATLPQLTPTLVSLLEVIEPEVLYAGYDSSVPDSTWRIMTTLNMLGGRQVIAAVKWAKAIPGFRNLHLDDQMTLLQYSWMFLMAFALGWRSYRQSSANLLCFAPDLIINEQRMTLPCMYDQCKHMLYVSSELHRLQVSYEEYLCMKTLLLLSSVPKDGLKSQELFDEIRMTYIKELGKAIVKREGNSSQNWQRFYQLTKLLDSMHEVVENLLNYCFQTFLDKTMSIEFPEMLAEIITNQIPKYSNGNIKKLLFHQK

Glucocorticoid receptor [4] = molecular target: T1, Glucocorticoid receptor; assay: Antagonist activity at GR in SW1353/MMTV5 cells assessed as inhibition of dexamethasone-induced luciferase expression; assay type: functional, cell-based
[5] = Cmax in rat at 5 mg/kg, po; assay type: ADME, organism-based; design: dose 5 mg/kg, route oral; conditions: in vivo
Rattus norvegicus = assay: AUC in rat at 5 mg/kg, po; assay type: ADME, organism-based, Plasma; design: dose 5 mg/kg, route oral; conditions: in vivo
[6] = Half life in rat at 5 mg/kg, po; assay type: ADME, organism-based; design: dose 5 mg/kg, route oral; conditions: in vivo
[7] = Oral bioavailability in rat at 5 mg/kg; assay type: ADME, organism-based; conditions: in vivo
[8] = Ratio of drug level in brain to plasma in rat at 5 mg/kg, po; assay type: ADME, organism-based; design: dose 5 mg/kg, route oral; conditions: read-out: BPR
[9] = Cmax in dog at […], po; assay type: ADME, organism-based, Canis lupus familiaris; design: dose 2.5 mg/kg, route oral; conditions: in vivo
[10] = Metabolic stability in human liver microsomes after 30 mins; assay type: ADME, Microsome; conditions: read-out: Stability

SMILES	AUC (Canis familiaris) [µg/h/mL]	half-life [1] [min]	bioavailability [2] [%]	Ki (Glucocorticoid receptor [3]) [nM]	Ki (Glucocorticoid receptor [4]) [nM]	Cmax [5] [ng/mL]	AUC (Rattus norvegicus) [µg/h/mL]	half-life [6] [min]	bioavailability [7] [%]	Kp [8]	Cmax [9] [ng/mL]	remaining at 0.5 h [10] [%]
CC(C)(C)c1ccc(S(=O)(=O)N2CCC3=Cc4c(cnn4-c4ccc(F)cc4)C[C@]3(C)C2)cc1	1.684	252	26	1.2	53	199	1.009	162	13	0.07	524	–
COC[C@]12Cc3cnn(-c4ccc(F)cc4)c3C=C1CCN(S(=O)(=O)c1ccc(C(F)(F)F)cc1)C2	3.638	402	58	0.8	28	163	0.966	204	16	0.83	647	–
COC[C@]12Cc3cnn(-c4ccc(F)cc4)c3C=C1CCN(S(=O)(=O)c1ccc(F)cc1)C2	1.676	252	54	1.4	33	106	0.621	126	22	1.1	381	57
COCCOC[C@]12Cc3cnn(-c4ccc(F)cc4)c3C=C1CCN(S(=O)(=O)c1ccc(F)cc1)C2	–	–	–	0.6	5.2	–	–	–	–	–	–	7
